Legend:
[1] = tested on: siRNA; assay: Agarose gel retardation assay of siRNA with lipid; type: physicochemical; conditions: for optimal lipid:siRNA ratio to completely retard the siRNA: precast 0.8% agarose gel, anti-apoB siRNA
Method: Gel retardation assay. In order to define the optimal ratio between lipid:siRNA to achieve full complexation of the nucleic acid which is manifested by a complete retardation in an electrical field, different ratios of lipid:siRNA (0-3) were produced and aliquots run on precast 0.8% agarose gels (Invitrogen). For this purpose, 1 μg siRNA were pipetted into 0.5 mL eppendorf tubes complemented with distilled water to 10 μL. The appropriate amount of lipid from a stock in water (2 mg/mL) were added to generate lipid:siRNA ratios between 0 and 3. All samples were vortexed and the whole reaction mixture pipetted to the individual wells of 0.8% pre-cast agarose gels and run at 50V/10 mA for 20 mins (FIG. 2). […] Therefore, for all future in vivo experiments, a ratio of 3:1 (lipid:siRNA) was chosen.

[2] = tested on: mouse apoB gene; assay: Down-regulation of the apoB gene in vivo (liver, real time PCR); set-up: species or system Balb/C mice; conditions: tail vein, liver at 48 h
Method: Lipid-siRNA AB nanoparticles with CDAN and DODAG were prepared at final lipid:siRNA ratios of 2.5 and 3, respectively. These values correspond to the optimal ratios to completely retard the siRNA on a precast 0.8% agarose gel (Invitrogen). All lipid-siRNA AB nanoparticle complexes were made in water at a final concentration of 0.5 mg siRNA/mL in water.
Experimental The appropriate amounts of CDAN and DODAG from stock solutions in water (5 mg/mL and 2 mg/mL, respectively) were pipetted into a 25 mL falcon plastic tube. The appropriate amount of anti-apoB siRNA from a stock solution of 10 mg/mL was added slowly to the respective lipid solution while vortexing the falcon tube. The appropriate amount of a solution of trehalose (100%, w/v in water) was added and the sample vortexed heavily for 10 s. The samples were then sonicated in a water bath for 15 mins to generate homogenous emulsions. 15 mins prior to the injection of the samples into Balb/C mice, 1.5M NaCl was added so that each lipid-siRNA AB nanoparticle preparation contained a final concentration of 150 mM NaCl. 200 μL aliquots were injected via tail vein and the animals left for 48 h before sacrificing. The liver was extracted and immediately put into a solution of RNAlater (Ambion). The total RNA was extracted using RNAeasy columns (Qiagen), and quantified both by UV absorption (λ=260 nm) and by densiometry of the bands on a 2% agarose formaldehyde gel.
1 μg of the total RNA was reversed transcribed to generate cDNA in a total volume of 20 μL. After completion of the reaction, the total reaction volume was supplemented to 40 μL with water. From this solution, 1 μL was used to do real time PCR (Sybr green) using the forward primer 5′-[…] (SEQ ID NO: 26) and the reverse primer 5′-[…] (SEQ ID NO:27) on an Applied Biosystem 7700 machine. The data were analysed using the ABI prism software (FIG. 4).

[3] = tested on: CyPB mRNA in HeLa cells; assay: Down-regulation of the cyclophilin B gene in vitro (real time PCR); type: cell-based, human; conditions: lipid:siRNA ratios lower than 13:1 (w/w)
Method: Experimental 4 μg (3.74 μL) siRNA were complemented with 770 μL OptiMEM and 52 μg (26 μL) DODAG (2 mg/mL, water) added under vortexing. The DODAG-siRNA AB nanoparticles were allowed to stand for 5 mins at room temperature. 200 μL of the DODAG-siRNA AB nanoparticle solution were pipetted to two wells of a six well plate containing HeLa cells (250,000), and the cells incubated at 37° C. for 3 h under CO2 regime. The cells were then washed with warm PBS and incubated for another 48 h before lysing and extracting the total RNA using RNAeasy extraction columns (Qiagen). The same protocol was employed with CDAN. For DOGS, the protocol as recommended by the manufacturer was applied. The quality of the total RNA was verified on a 2% agarose formaldehyde gel, and the RNA quantified by UV (260 nm). 1 μg RNA of each sample was reverse transcribed to generate cDNA which was real time PCRed using standard protocols with Sybr green. The CyPB levels were standardized to β-actin levels for each sample (FIG. 3).

| optimal lipid:siRNA ratio to completely retard the siRNA [1] | N/P ratio at which the movement of siRNA was entirely retarded ([1]; agarose gel, assuming cationic charge of 1.5 per DODAG) | Structure (SMILES) | down-regulation of the apoB mRNA in vivo ([2]; 5 mg siRNA/kg animal) | down-regulation of the apoB mRNA in vivo ([2]; 15 mg siRNA/kg animal) | specific down-regulation of CyPB in vitro [3] |
| --- | --- | --- | --- | --- | --- |
| 2.5 | – | CC(C)CCC[C@@H](C)[C@H]1CC[C@H]2[C@@H]3CC=C4C[C@@H](OC(=O)NCCNCCCNCCN)CC[C@]4(C)[C@H]3CC[C@]12C [CDAN, N^1-cholesteryloxycarbonyl-3,7-diazanonane-1,9-diamine] | did not mediate down-regulation | did not mediate down-regulation | – |
| 3 | 1.8 | CCCCCCCCCCCCCCCCCCN(CCCCCCCCCCCCCCCCCC)C(=O)CNC(=O)CCNCCCNCCN [DODAG, N′,N′-dioctadecyl-N-4,8-diaza-10-aminodecanoylglycine amide] | > 60% | – | unsuccessful |

Source: US20100297023A1, “Lipid” (priority 2006, published 2010)
